Laboratory results taken from patent US20030134329A1, “Cross-species bioactive peptides” (priority 2001, published 2003).

Key:
FLO11 = assay: PFLO11-lacZ reporter, β-galactosidase activity; assay type: cell-based, S. cerevisiae; conditions: for FL011-lacZ (relative expression): Table 1, strain MY1405 with plasmid MB1339, control pTCN23 = 1.0; for FLO11-lacZ (relative expression): Table 2, strain MY1405 with MB1339, control pTCN23 = 1.0
From the text: Transformation of S. cerevisiae was by lithium acetate/single-stranded carrier DNA/polyethylene glycol (LiAc/ss-DNA/PEG) protocol (see, e.g., Gietz and Woods (1998), in: Methods in Microbiology, Chapter 26, Brown and Tuite, eds., Academic Press, New York; Agatep et al. (1998), TTO 1:P01525, Technical Tips Online at http://tto.trends.com) with a library of plasmids expressing unique random peptide sequences in the context of a Staphylococcal nuclease “scaffold” to generate more than 20 million independent Ura^+ transformants (Norman et al. (1999), Science 285:591-595). The transformants were replica-plated to YPD plates supplemented with […] G418 to select for clones with increased expression of the invasion-related reporter (FLO11) and consequent G418 resistance. Plates were incubated at 30° C. for 2-4 days and resistant clones were collected in pools (50 pools total) by scraping the colonies off each plate in a small volume of water. Plasmids were isolated as a pool (Hoffman and Winston (1986), Gene 57:267), transformed into E. coli, and re-transformed as a pool into the original selection strain, MY1560. Ura^+ transformants were again replica plated to YPD+100 μg/ml G418 plates. […] Positive clones were further tested for plasmid dependence by (1) examining the correlation between spontaneous loss of the peptide-expressing plasmid and loss of G418 resistance, and (2) recovering the plasmid from the yeast, retransforming into the original selection strain, and characterizing the G418 resistance. […] The remaining candidate peptides were characterized for their effects on expression of PFLO11-lacZ reporter constructs. This was performed by co-transforming the candidate plasmid into S. cerevisiae strain MY1405 (MATα ura3Δ0 his3Δ0::hisG trp1Δ0::hisG) which contains plasmid MB1339 [PFLO11-lacZ TRP1 […]] and measuring β-galactosidase activity.

SMP1 = conditions: Table 2, strain MY1405 with MB1338, control pTCN23 = 1.0
From the text: S. cerevisiae strain MY1561 (MATα/MATαΔ::LEU2 ura3Δ::PSMP1-neo/ura3Δ0 leu2Δ0/leu2Δ0 trp1Δ0::hisG/trp1Δ0::hisG/his3Δ0::hisG/his3Δ0::hisG) was transformed with the peptide library as described above to generate 10 million independent Ura^+ clones. The transformed clones were mated to lawns of S. cerevisiae strain MY1406 [MB1337] and subsequently replica-plated to SC-Ura-Trp plates to select for triploids carrying the library clones in addition to the PSMP1-neo reporter. […] The MY1561/MY1406 [MB1337] triploids were replica-plated to YPD plates containing 100, 150, and 200 μg/ml G418, and resistant colonies were picked and retested, and their phenotypes were checked for library plasmid dependence using 5-FOA. Promising candidates were lysed and their plasmids recovered in E. coli, amplified, and reintroduced into MY1561 along with MB 1337(MY1561 is an S. cerevisiae strain and MB 1337 is a plasmid). […] In addition, S. cerevisiae strain MY1405 was transformed with the peptide clones along with MB1338 [PSMP1-lacZ TRP1 2 micron] and MB1339 [PFLO11-lacZ TRP1 2 micron], and the enzyme assays were monitored. […] Peptide inhibitors of invasion were further characterized for their effects on calcofluor resistance, a phenotype associated with mutations in the rim101/pH response pathway.

[1] = tested on: hyphal transition in C. albicans; assay: serum induction assay of hyphal transition; assay type: cell-based; conditions: C. albicans transformants, serum inducing media, 37° C., relative to parent staph nuclease scaffold
PHWP1-lacZ reporter = PHWP1-lacZ reporter visual screen on X-Gal plates; assay type: cell-based, C. albicans

## GRRSRVRWSWPLFKSL [5-28, 3, invasion-promoting random peptide expressed in loop of Staphylococcal nuclease scaffold]
FLO11
  FL011-lacZ (relative expression): 18.2

## EWCEICHRLVWVFCFT [5-34, 3, invasion-promoting random peptide expressed in loop of Staphylococcal nuclease scaffold]
FLO11
  FL011-lacZ (relative expression): 4.1

## REINWLRFFRLHKVID [5-45, 2, invasion-promoting random peptide expressed in loop of Staphylococcal nuclease scaffold]
FLO11
  FL011-lacZ (relative expression): 6.2

## KRGRRRSHSCPSLMTD [4-1, 1, invasion-promoting random peptide expressed in loop of Staphylococcal nuclease scaffold]
FLO11
  FL011-lacZ (relative expression): 2.2

## RCPVAHTLCWEVAGCT [Clone 5-43-3b, invasion-promoting random peptide expressed in loop of Staphylococcal nuclease scaffold]
FLO11
  FL011-lacZ (relative expression): 9.6

## LPYEVSRVCWPRRLGY [Clone D2e]
SMP1
  SMP1-lacZ (relative expression): 14.3
FLO11
  FLO11-lacZ (relative expression): 0.1

## QRIPLIGGVLFIAWIM [Clone 5-11-3a, invasion-promoting random peptide expressed in loop of Staphylococcal nuclease scaffold]
FLO11
  FL011-lacZ (relative expression): 3.0

## GYLRKHRALALGLNLH [4-9, 3, invasion-promoting random peptide expressed in loop of Staphylococcal nuclease scaffold]
FLO11
  FL011-lacZ (relative expression): 11.5

## YEAGVILRACLWAVSG [4-17, 1, invasion-promoting random peptide expressed in loop of Staphylococcal nuclease scaffold]
FLO11
  FL011-lacZ (relative expression): 10.5

## ELAYKFGRDWARLYFS [Clone 5-75-1, invasion-promoting random peptide expressed in loop of Staphylococcal nuclease scaffold]
FLO11
  FL011-lacZ (relative expression): 15.0

## AFSRRGRRAWSWPVSN [5-48, 2, invasion-promoting random peptide expressed in loop of Staphylococcal nuclease scaffold]
FLO11
  FL011-lacZ (relative expression): 12.9

## PYGPFLLLTPF*A*L [5-32, 1, invasion-promoting random peptide in Staphylococcal nuclease scaffold; * denotes a stop codon; C. albicans expression plasmid MB2756]
[1]
  morphological switch between yeast and filamentous growth (hyphal transition): effective in inducing the morphological switch between yeast and filamentous growth
FLO11
  FL011-lacZ (relative expression): 15.1
PHWP1-lacZ reporter
  β-galactosidase expression (PHWP1-lacZ reporter): higher level of β-galactosidase expression

## KRKVCLLGGRFLVEWL [4-16, 2, invasion-promoting random peptide expressed in loop of Staphylococcal nuclease scaffold]
FLO11
  FL011-lacZ (relative expression): 14.8

## GHLWEWSGERWLLRWC [5-23, 1a, invasion-promoting random peptide expressed in loop of Staphylococcal nuclease scaffold]
FLO11
  FL011-lacZ (relative expression): 12.2

## LPVSYVGQSTSQGPVW [Clone G4a-6]
SMP1
  SMP1-lacZ (relative expression): 7.8
FLO11
  FLO11-lacZ (relative expression): 0.4

## RRWNRLKSWWPCFREQ [Clone 5-18-3b, invasion-promoting random peptide expressed in loop of Staphylococcal nuclease scaffold]
FLO11
  FL011-lacZ (relative expression): 2.6

## WWRPHERFIWAQYYLA [5-14, 3, invasion-promoting random peptide expressed in loop of Staphylococcal nuclease scaffold]
FLO11
  FL011-lacZ (relative expression): 4.9

## LTGYAKLLVQLSYFAM [Clone B2c-2]
SMP1
  SMP1-lacZ (relative expression): 6.4
FLO11
  FLO11-lacZ (relative expression): 0.7

## LGYGEAEREMVTCREH [Clone D4a]
SMP1
  SMP1-lacZ (relative expression): 9.1
FLO11
  FLO11-lacZ (relative expression): 0.1

## CGLGGCCCEIFWSFSN [5-30, 3, invasion-promoting random peptide expressed in loop of Staphylococcal nuclease scaffold]
FLO11
  FL011-lacZ (relative expression): 7.3

## GAGCAPRGCVVWSSLL [4-3, 1, invasion-promoting random peptide expressed in loop of Staphylococcal nuclease scaffold]
FLO11
  FL011-lacZ (relative expression): 2.5

## HGDGLMRYFWSVAMWT [Clone 5-12-1a, invasion-promoting random peptide expressed in loop of Staphylococcal nuclease scaffold]
FLO11
  FL011-lacZ (relative expression): 2.7

## RRWEVLRGDRTARLLS [5-25, 2, invasion-promoting random peptide expressed in loop of Staphylococcal nuclease scaffold]
FLO11
  FL011-lacZ (relative expression): 13.7

## LDLDRVSVNRCSFMGF [Clone 5-20-1a, invasion-promoting random peptide expressed in loop of Staphylococcal nuclease scaffold]
FLO11
  FL011-lacZ (relative expression): 2.8

## LYRAFTWPVAKSLRME [5-37, 1, invasion-promoting random peptide expressed in loop of Staphylococcal nuclease scaffold]
FLO11
  FL011-lacZ (relative expression): 6.1

## LGYMRASREMDGWKLL [Clone D2a]
SMP1
  SMP1-lacZ (relative expression): 15.4
FLO11
  FLO11-lacZ (relative expression): 0.3

## ALARWLEIELHPQGLI [5-16, 3, invasion-promoting random peptide expressed in loop of Staphylococcal nuclease scaffold]
FLO11
  FL011-lacZ (relative expression): 13.3

## SGDAVMGFLLKCLGLQ [5-31, 2, invasion-promoting random peptide expressed in loop of Staphylococcal nuclease scaffold]
FLO11
  FL011-lacZ (relative expression): 12.6

## LAYGPERYPRACMRWD [Clone B2a]
SMP1
  SMP1-lacZ (relative expression): 8.9
FLO11
  FLO11-lacZ (relative expression): 0.2

## QPWYRKLRLAPVYPSD [Clone 5-39-1a, invasion-promoting random peptide expressed in loop of Staphylococcal nuclease scaffold]
FLO11
  FL011-lacZ (relative expression): 17.8

## MGCVKRLLWGCCMKLT [Clone 5-64-1, invasion-promoting random peptide expressed in loop of Staphylococcal nuclease scaffold]
FLO11
  FL011-lacZ (relative expression): 2.0

## LSYMEGPYWHRSFRAV [Clone G2a]
SMP1
  SMP1-lacZ (relative expression): 7.5
FLO11
  FLO11-lacZ (relative expression): 0.5
